Measured values from patent US20230183193A1, “4-DIFLUOROMETHYL BENZOYL AMIDES WITH HERBICIDAL ACTION” (BAYER CROPSCIENCE AKTIENGESELLSCHAFT, priority 2017, published 2023).

Tests used:
Abutilon theophrasti [1] = test: Pre-emergence herbicidal action, ABUTH; format: in vivo; settings: for Herbicidal efficacy against ABUTH: Table K; for herbicidal activity ABUTH: scored visually after 3 weeks vs untreated controls
How it was run: (§1)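 Percent herbicidal activity rated by eye 3 weeks after pre-emergence soil-surface application, compared with untreated pots. Seeds sat under sandy loam; sprays carried 0.2% wetting agent.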

Alopecurus myosuroides [2] = test: Pre-emergence herbicidal action, ALOMY; format: in vivo; settings: for herbicidal activity ALOMY: dosage 320 g/ha, scored visually after 3 weeks vs untreated controls
How it was run: as §1

Amaranthus retroflexus [3] = test: Pre-emergence herbicidal action, AMARE; format: in vivo; settings: dosage 320 g/ha, scored visually after 3 weeks vs untreated controls
How it was run: as §1

Avena fatua [4] = test: Pre-emergence herbicidal action, AVEFA; format: in vivo; settings: for herbicidal activity AVEFA: dosage 320 g/ha, scored visually after 3 weeks vs untreated controls
How it was run: as §1

Cyperus serotinus = test: Pre-emergence herbicidal action, CYPES; format: in vivo; settings: for herbicidal activity CYPES: dosage 320 g/ha, scored visually after 3 weeks vs untreated controls
How it was run: as §1

Matricaria inodora = test: Pre-emergence herbicidal action, MATIN; format: in vivo; settings: for Herbicidal efficacy against MATIN: Table K; for herbicidal activity MATIN: scored visually after 3 weeks vs untreated controls
How it was run: as §1

Polygonum convolvulus = test: Pre-emergence herbicidal action, POLCO; format: in vivo; settings: Table K
Source text: 1. Pre-Emergence Herbicidal Action Against Harmful Plants Seeds of monocotyledonous and dicotyledonous weed plants and crop plants are laid out in sandy loam soil in wood-fiber pots and covered with soil. The compounds of the invention, formulated in the form of wettable powders (WP) or as emulsion concentrates (EC), are then applied to the surface of the covering soil in the form of an aqueous suspension or emulsion at a water application rate equating to […], with addition of 0.2% wetting agent. After the treatment, the pots are placed in a greenhouse and kept under good growth conditions for the trial plants. The damage to the test plants is scored visually after a test period of 3 weeks by comparison with untreated controls (herbicidal activity in percent (%): 100% activity=the plants have died, 0% activity=like control plants).
For comparison, the herbicidal activity of numerous compounds according to the invention was tested with the structurally closest compounds known from the documents WO 2011/035874, WO 2012/028579 and WO 2012/126932, by the pre- and post-emergence method.

Setaria viridis [5] = test: Pre-emergence herbicidal action, SETVI; format: in vivo; settings: for herbicidal activity SETVI: dosage 320 g/ha, scored visually after 3 weeks vs untreated controls
How it was run: as §1

Stellaria media [6] = test: Pre-emergence herbicidal action, STEME; format: in vivo; settings: dosage 320 g/ha, scored visually after 3 weeks vs untreated controls
How it was run: as §1

Viola tricolor [7] = test: Pre-emergence herbicidal action, VIOTR; format: in vivo; settings: for Herbicidal efficacy against VIOTR: Table K; for herbicidal activity VIOTR: scored visually after 3 weeks vs untreated controls
How it was run: as §1

Abutilon theophrasti [8] = test: Post-emergence herbicidal action, ABUTH; format: in vivo; settings: 80 g/ha, Table D
How it was run: (§2)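 Herbicidal effect is rated visually as percent versus untreated plants (100% = dead, 0% = like control) about 3 weeks after spraying. Plants were sown in sandy loam in the greenhouse and sprayed on green parts at the one-leaf stage, 2 to 3 weeks post-sowing.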

Alopecurus myosuroides [9] = test: Post-emergence herbicidal action, ALOMY; format: in vivo; settings: for herbicidal activity ALOMY: Table C
How it was run: as §2

Amaranthus retroflexus [10] = test: Post-emergence herbicidal action, AMARE; format: in vivo; settings: 80 g/ha, Table D
How it was run: as §2

Avena fatua [11] = test: Post-emergence herbicidal action, AVEFA; format: in vivo; settings: for herbicidal activity AVEFA: Table C
How it was run: as §2

Pharbitis purpureum = test: Post-emergence herbicidal action, PHBPU; format: in vivo; settings: 80 g/ha, Table D
How it was run: as §2

Setaria viridis [12] = test: Post-emergence herbicidal action, SETVI; format: in vivo; settings: for herbicidal activity SETVI: Table C
How it was run: as §2

Stellaria media [13] = test: Post-emergence herbicidal action, STEME; format: in vivo; settings: for Herbicidal activity STEME: Table D
How it was run: as §2

Viola tricolor [14] = test: Post-emergence herbicidal action, VIOTR; format: in vivo; settings: for herbicidal activity VIOTR: Table D
How it was run: as §2

ECHCG [15] = test: Post-emergence herbicidal action, ECHCG; format: in vivo; settings: 80 g/ha, Table C
How it was run: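 Weed and crop plants grown in sandy loam in the greenhouse, treated at the one-leaf stage 2–3 weeks after sowing. Damage scored visually after about 3 weeks vs untreated controls (0% = control, 100% = dead).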

ECHCG [16] = test: Pre-emergence herbicidal action, ECHCG; format: in vivo, Echinochloa crus-galli

Cn1nnnc1NC(=O)c1ccc(C(F)F)c([S+](C)[O-])c1Cl (stereo not shown) [Example 1-50]
Herbicidal efficacy against ABUTH (Abutilon theophrasti [1]; dosage 20 g/ha): 100
Herbicidal efficacy against ABUTH (Abutilon theophrasti [1]; dosage 80 g/ha): 100
Herbicidal efficacy against ABUTH (Abutilon theophrasti [1]; dosage 320 g/ha): 100
herbicidal activity ABUTH (Abutilon theophrasti [1]; dosage 320 g/ha): 100%
Herbicidal efficacy against ALOMY (Alopecurus myosuroides [2]; 20 g/ha): 90
Herbicidal efficacy against ALOMY (Alopecurus myosuroides [2]; 80 g/ha): 100
Herbicidal efficacy against ALOMY (Alopecurus myosuroides [2]; 320 g/ha): 100
herbicidal activity ALOMY (Alopecurus myosuroides [2]): 100%
herbicidal activity AMARE (Amaranthus retroflexus [3]): 100%
Herbicidal efficacy against AVEFA (Avena fatua [4]; 80 g/ha): 90
Herbicidal efficacy against AVEFA (Avena fatua [4]; 320 g/ha): 100
herbicidal activity AVEFA (Avena fatua [4]): 100%
Herbicidal efficacy against CYPES (Cyperus serotinus; 20 g/ha): 70
Herbicidal efficacy against CYPES (Cyperus serotinus; 80 g/ha): 100
Herbicidal efficacy against CYPES (Cyperus serotinus; 320 g/ha): 100
herbicidal activity CYPES (Cyperus serotinus): 100%
Herbicidal efficacy against MATIN (Matricaria inodora; dosage 20 g/ha): 90
Herbicidal efficacy against MATIN (Matricaria inodora; dosage 80 g/ha): 100
Herbicidal efficacy against MATIN (Matricaria inodora; dosage 320 g/ha): 100
herbicidal activity MATIN (Matricaria inodora; dosage 320 g/ha): 100%
Herbicidal efficacy against POLCO (Polygonum convolvulus; dosage 80 g/ha): 80
Herbicidal efficacy against POLCO (Polygonum convolvulus; dosage 320 g/ha): 90
Herbicidal efficacy against SETVI (Setaria viridis [5]; 20 g/ha): 100
Herbicidal efficacy against SETVI (Setaria viridis [5]; 80 g/ha): 100
Herbicidal efficacy against SETVI (Setaria viridis [5]; 320 g/ha): 100
herbicidal activity SETVI (Setaria viridis [5]): 100%
Herbicidal activity STEME (Stellaria media [6]): 90%
Herbicidal efficacy against VIOTR (Viola tricolor [7]; dosage 20 g/ha): 100
Herbicidal efficacy against VIOTR (Viola tricolor [7]; dosage 80 g/ha): 100
Herbicidal efficacy against VIOTR (Viola tricolor [7]; dosage 320 g/ha): 100
herbicidal activity VIOTR (Viola tricolor [7]; dosage 320 g/ha): 100%
herbicidal activity ABUTH (Abutilon theophrasti [8]): 100%
herbicidal activity ALOMY (Alopecurus myosuroides [9]; 80 g/ha): 100%
herbicidal activity AMARE (Amaranthus retroflexus [10]): 100%
herbicidal activity AVEFA (Avena fatua [11]; 80 g/ha): 100%
Herbicidal activity PHBPU (Pharbitis purpureum): 100%
herbicidal activity SETVI (Setaria viridis [12]; 80 g/ha): 100%
Herbicidal activity STEME (Stellaria media [13]; 80 g/ha): 100%
herbicidal activity VIOTR (Viola tricolor [14]; 80 g/ha): 100%
Herbicidal activity ECHCG (ECHCG [15]): 100%
Herbicidal efficacy against ECHCG (ECHCG [16]; 20 g/ha): 90
Herbicidal efficacy against ECHCG (ECHCG [16]; 80 g/ha): 100
Herbicidal efficacy against ECHCG (ECHCG [16]; 320 g/ha): 100

Cc1c(C(=O)Nc2nnnn2C)ccc(C(F)F)c1S(C)(=O)=O [Example 1-3]
Herbicidal efficacy against ABUTH (Abutilon theophrasti [1]; dosage 20 g/ha): 100
Herbicidal efficacy against ABUTH (Abutilon theophrasti [1]; dosage 80 g/ha): 100
Herbicidal efficacy against ABUTH (Abutilon theophrasti [1]; dosage 320 g/ha): 100
herbicidal activity ABUTH (Abutilon theophrasti [1]; dosage 320 g/ha): 100%
Herbicidal efficacy against ALOMY (Alopecurus myosuroides [2]; 20 g/ha): 50
Herbicidal efficacy against ALOMY (Alopecurus myosuroides [2]; 80 g/ha): 90
Herbicidal efficacy against ALOMY (Alopecurus myosuroides [2]; 320 g/ha): 100
herbicidal activity ALOMY (Alopecurus myosuroides [2]): 100%
herbicidal activity AMARE (Amaranthus retroflexus [3]): 100%
Herbicidal efficacy against AVEFA (Avena fatua [4]; 20 g/ha): 80
Herbicidal efficacy against AVEFA (Avena fatua [4]; 80 g/ha): 100
Herbicidal efficacy against AVEFA (Avena fatua [4]; 320 g/ha): 100
herbicidal activity AVEFA (Avena fatua [4]): 100%
Herbicidal efficacy against CYPES (Cyperus serotinus; 20 g/ha): 30
Herbicidal efficacy against CYPES (Cyperus serotinus; 80 g/ha): 90
Herbicidal efficacy against CYPES (Cyperus serotinus; 320 g/ha): 90
herbicidal activity CYPES (Cyperus serotinus): 90%
Herbicidal efficacy against MATIN (Matricaria inodora; dosage 20 g/ha): 80
Herbicidal efficacy against MATIN (Matricaria inodora; dosage 80 g/ha): 100
Herbicidal efficacy against MATIN (Matricaria inodora; dosage 320 g/ha): 100
herbicidal activity MATIN (Matricaria inodora; dosage 320 g/ha): 100%
Herbicidal efficacy against POLCO (Polygonum convolvulus; dosage 20 g/ha): 30
Herbicidal efficacy against POLCO (Polygonum convolvulus; dosage 80 g/ha): 90
Herbicidal efficacy against POLCO (Polygonum convolvulus; dosage 320 g/ha): 90
Herbicidal efficacy against SETVI (Setaria viridis [5]; 20 g/ha): 70
Herbicidal efficacy against SETVI (Setaria viridis [5]; 80 g/ha): 100
Herbicidal efficacy against SETVI (Setaria viridis [5]; 320 g/ha): 100
herbicidal activity SETVI (Setaria viridis [5]): 100%
Herbicidal activity STEME (Stellaria media [6]): 100%
Herbicidal efficacy against VIOTR (Viola tricolor [7]; dosage 20 g/ha): 100
Herbicidal efficacy against VIOTR (Viola tricolor [7]; dosage 80 g/ha): 100
Herbicidal efficacy against VIOTR (Viola tricolor [7]; dosage 320 g/ha): 100
herbicidal activity VIOTR (Viola tricolor [7]; dosage 320 g/ha): 100%
herbicidal activity ABUTH (Abutilon theophrasti [8]): 80%
Herbicidal efficacy against ALOMY (Alopecurus myosuroides [9]; 5 g/ha): 60
Herbicidal efficacy against ALOMY (Alopecurus myosuroides [9]; 80 g/ha): 90
herbicidal activity ALOMY (Alopecurus myosuroides [9]; 80 g/ha): 90%
Herbicidal efficacy against AVEFA (Avena fatua [11]; 5 g/ha): 70
Herbicidal efficacy against AVEFA (Avena fatua [11]; 80 g/ha): 100
herbicidal activity AVEFA (Avena fatua [11]; 80 g/ha): 100%
Herbicidal activity PHBPU (Pharbitis purpureum): 100%
Herbicidal efficacy against SETVI (Setaria viridis [12]; 5 g/ha): 90
Herbicidal efficacy against SETVI (Setaria viridis [12]; 80 g/ha): 90
herbicidal activity SETVI (Setaria viridis [12]; 80 g/ha): 90%
Herbicidal efficacy against STEME (Stellaria media [13]; 5 g/ha): 90
Herbicidal efficacy against STEME (Stellaria media [13]; 80 g/ha): 100
Herbicidal activity STEME (Stellaria media [13]; 80 g/ha): 100%
Herbicidal efficacy against VIOTR (Viola tricolor [14]; 5 g/ha): 100
Herbicidal efficacy against VIOTR (Viola tricolor [14]; 80 g/ha): 100
herbicidal activity VIOTR (Viola tricolor [14]; 80 g/ha): 100%
Herbicidal activity ECHCG (ECHCG [15]): 90%
Herbicidal efficacy against ECHCG (ECHCG [16]; 20 g/ha): 90
Herbicidal efficacy against ECHCG (ECHCG [16]; 80 g/ha): 100
Herbicidal efficacy against ECHCG (ECHCG [16]; 320 g/ha): 100

Cn1nnnc1NC(=O)c1ccc(C(F)F)c([S+](C)[O-])c1C1CC1 (stereo not shown) [Example 1-26]
herbicidal activity ABUTH (Abutilon theophrasti [1]; dosage 320 g/ha): 100%
herbicidal activity ALOMY (Alopecurus myosuroides [2]): 100%
herbicidal activity AMARE (Amaranthus retroflexus [3]): 100%
herbicidal activity AVEFA (Avena fatua [4]): 100%
herbicidal activity CYPES (Cyperus serotinus): 100%
herbicidal activity MATIN (Matricaria inodora; dosage 320 g/ha): 100%
herbicidal activity SETVI (Setaria viridis [5]): 100%
Herbicidal activity STEME (Stellaria media [6]): 100%
herbicidal activity VIOTR (Viola tricolor [7]; dosage 320 g/ha): 100%
herbicidal activity ABUTH (Abutilon theophrasti [8]): 100%
herbicidal activity ALOMY (Alopecurus myosuroides [9]; 80 g/ha): 90%
herbicidal activity AMARE (Amaranthus retroflexus [10]): 100%
herbicidal activity AVEFA (Avena fatua [11]; 80 g/ha): 100%
Herbicidal activity PHBPU (Pharbitis purpureum): 90%
herbicidal activity SETVI (Setaria viridis [12]; 80 g/ha): 100%
Herbicidal activity STEME (Stellaria media [13]; 80 g/ha): 100%
herbicidal activity VIOTR (Viola tricolor [14]; 80 g/ha): 100%
Herbicidal activity ECHCG (ECHCG [15]): 100%
